# Assays:
# Assay type in all cases: functional
# Staphylococcus aureus [1] = experiment: Antimicrobial activity against vancomycin-resistant Staphylococcus aureus 509 measured on day 40 by macrodilution method
# Staphylococcus aureus [2] = experiment: Antimicrobial activity against methicillin-susceptible Staphylococcus aureus 543 measured on day 10 by macrodilution method; conditions: Staphylococcus aureus, 543, 240 h
# Staphylococcus aureus [3] = experiment: Antimicrobial activity against vancomycin-resistant Staphylococcus aureus 510 by macrodilution method
# Staphylococcus aureus [4] = experiment: Antimicrobial activity against methicillin-susceptible Staphylococcus aureus 543 after 50 passages by macrodilution method
# Staphylococcus aureus [5] = experiment: Antimicrobial activity against vancomycin-intermediate Staphylococcus aureus 555 measured after 10 antibiotic-free subculturing by macrodilution method
# Staphylococcus aureus [6] = experiment: Antimicrobial activity against methicillin-susceptible Staphylococcus aureus 543 measured on day 5 by macrodilution method; conditions: Staphylococcus aureus, 543, 120 h
# Staphylococcus aureus [7] = experiment: Antimicrobial activity against methicillin-susceptible Staphylococcus aureus 540 measured on day 10 by macrodilution method; conditions: Staphylococcus aureus, 540, 240 h
# Staphylococcus aureus [8] = experiment: Antimicrobial activity against vancomycin-resistant Staphylococcus aureus 509 measured on day 35 by macrodilution method
# Staphylococcus aureus [9] = experiment: Antimicrobial activity against vancomycin-intermediate Staphylococcus aureus 555 measured on day 5 by macrodilution method; conditions: Staphylococcus aureus, 555, 120 h
# Staphylococcus aureus [10] = experiment: Antimicrobial activity against methicillin-susceptible Staphylococcus aureus 543 by macrodilution method
# Staphylococcus aureus [11] = experiment: Antimicrobial activity against vancomycin-intermediate Staphylococcus aureus 1287 measured on day 30 by macrodilution method
# Staphylococcus aureus [12] = experiment: Antimicrobial activity against vancomycin-intermediate Staphylococcus aureus 555 measured on day 25 by macrodilution method; conditions: Staphylococcus aureus, 555, 600 h
# Staphylococcus aureus [13] = experiment: Antimicrobial activity against vancomycin-intermediate Staphylococcus aureus 1287 measured on day 45 by macrodilution method
# Staphylococcus aureus [14] = experiment: Antimicrobial activity against vancomycin-intermediate Staphylococcus aureus 555 measured on day 35 by macrodilution method
# Staphylococcus aureus [15] = experiment: Antimicrobial activity against methicillin-resistant Staphylococcus aureus 525 measured on day 25 by macrodilution method; conditions: Staphylococcus aureus, 525, 600 h
# Staphylococcus aureus [16] = experiment: Antimicrobial activity against heterogeneous vancomycin-intermediate Staphylococcus aureus 168 measured on day 40 by macrodilution method
# Staphylococcus aureus [17] = experiment: Antimicrobial activity against methicillin-resistant Staphylococcus aureus 547 measured on day 50 by macrodilution method
# Staphylococcus aureus [18] = experiment: Antimicrobial activity against methicillin-resistant Staphylococcus aureus 547 measured on day 10 by macrodilution method; conditions: Staphylococcus aureus, 547, 240 h
# Staphylococcus aureus [19] = experiment: Antimicrobial activity against vancomycin-intermediate Staphylococcus aureus 555 measured on day 10 by macrodilution method; conditions: Staphylococcus aureus, 555, 240 h
# Staphylococcus aureus [20] = experiment: Antimicrobial activity against heterogeneous vancomycin-intermediate Staphylococcus aureus 873 measured on day 5 by macrodilution method; conditions: Staphylococcus aureus, 873, 120 h
# Staphylococcus aureus [21] = experiment: Antimicrobial activity against methicillin-susceptible Staphylococcus aureus 543 measured on day 40 by macrodilution method
# Staphylococcus aureus [22] = experiment: Antimicrobial activity against vancomycin-intermediate Staphylococcus aureus 555 measured on day 40 by macrodilution method
# Staphylococcus aureus [23] = experiment: Antimicrobial activity against methicillin-resistant Staphylococcus aureus 547 measured on day 15 by macrodilution method; conditions: Staphylococcus aureus, 547, 360 h
# Staphylococcus aureus [24] = experiment: Antimicrobial activity against methicillin-susceptible Staphylococcus aureus 543 measured on day 25 by macrodilution method; conditions: Staphylococcus aureus, 543, 600 h
# Staphylococcus aureus [25] = experiment: Antimicrobial activity against vancomycin-intermediate Staphylococcus aureus 1287 measured on day 5 by macrodilution method; conditions: Staphylococcus aureus, 1287, 120 h
structure (smiles),measurement,setting,value
C[C@H]1C=C(c2csc(SC3=C(C(=O)O)N4C(=O)[C@H]([C@@H](C)O)[C@H]4[C@H]3C)n2)CN1 [RAZUPENEM],MIC,Staphylococcus aureus [1],4 mg/L
same,MIC,Staphylococcus aureus [2],0.03 mg/L
same,MIC,Staphylococcus aureus [3],1 mg/L
same,MIC,Staphylococcus aureus [4],0.06 mg/L
same,MIC,Staphylococcus aureus [5],2 mg/L
same,MIC,Staphylococcus aureus [6],0.03 mg/L
same,MIC,Staphylococcus aureus [7],0.016 mg/L
same,MIC,Staphylococcus aureus [8],4 mg/L
same,MIC,Staphylococcus aureus [9],1 mg/L
same,MIC,Staphylococcus aureus [10],0.016 mg/L
same,MIC,Staphylococcus aureus [11],16 mg/L
same,MIC,Staphylococcus aureus [12],2 mg/L
same,MIC,Staphylococcus aureus [13],2 mg/L
same,MIC,Staphylococcus aureus [14],4 mg/L
same,MIC,Staphylococcus aureus [15],4 mg/L
same,MIC,Staphylococcus aureus [16],8 mg/L
same,MIC,Staphylococcus aureus [17],16 mg/L
same,MIC,Staphylococcus aureus [18],1 mg/L
same,MIC,Staphylococcus aureus [19],1 mg/L
same,MIC,Staphylococcus aureus [20],2 mg/L
same,MIC,Staphylococcus aureus [21],0.06 mg/L
same,MIC,Staphylococcus aureus [22],4 mg/L
same,MIC,Staphylococcus aureus [23],2 mg/L
same,MIC,Staphylococcus aureus [24],0.03 mg/L
same,MIC,Staphylococcus aureus [25],0.25 mg/L
